Experimental data as given in ChEMBL document CHEMBL1201862, “PubChem BioAssay data set” (2004).
Calls of active or inactive are those of the source.

What was measured:
cells [1] = assay type: functional, cell-based
cells [2] = assay type: functional, cell-based; remark: listed apart in the source
Fatty acid synthase [3] = molecular target: T1, Fatty acid synthase (Homo sapiens, UniProt P49327); experiment: inhibition of human FAS-TE enzyme activity – biochemical, endpoint fluorescence intensity, uHTS hits, dose response (AID 624327); assay type: functional;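 note: fluorescence from hydrolysis of an O-methyl fluorescein acyl ester substrate by the enzyme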
T1 sequence (P49327 whole entry): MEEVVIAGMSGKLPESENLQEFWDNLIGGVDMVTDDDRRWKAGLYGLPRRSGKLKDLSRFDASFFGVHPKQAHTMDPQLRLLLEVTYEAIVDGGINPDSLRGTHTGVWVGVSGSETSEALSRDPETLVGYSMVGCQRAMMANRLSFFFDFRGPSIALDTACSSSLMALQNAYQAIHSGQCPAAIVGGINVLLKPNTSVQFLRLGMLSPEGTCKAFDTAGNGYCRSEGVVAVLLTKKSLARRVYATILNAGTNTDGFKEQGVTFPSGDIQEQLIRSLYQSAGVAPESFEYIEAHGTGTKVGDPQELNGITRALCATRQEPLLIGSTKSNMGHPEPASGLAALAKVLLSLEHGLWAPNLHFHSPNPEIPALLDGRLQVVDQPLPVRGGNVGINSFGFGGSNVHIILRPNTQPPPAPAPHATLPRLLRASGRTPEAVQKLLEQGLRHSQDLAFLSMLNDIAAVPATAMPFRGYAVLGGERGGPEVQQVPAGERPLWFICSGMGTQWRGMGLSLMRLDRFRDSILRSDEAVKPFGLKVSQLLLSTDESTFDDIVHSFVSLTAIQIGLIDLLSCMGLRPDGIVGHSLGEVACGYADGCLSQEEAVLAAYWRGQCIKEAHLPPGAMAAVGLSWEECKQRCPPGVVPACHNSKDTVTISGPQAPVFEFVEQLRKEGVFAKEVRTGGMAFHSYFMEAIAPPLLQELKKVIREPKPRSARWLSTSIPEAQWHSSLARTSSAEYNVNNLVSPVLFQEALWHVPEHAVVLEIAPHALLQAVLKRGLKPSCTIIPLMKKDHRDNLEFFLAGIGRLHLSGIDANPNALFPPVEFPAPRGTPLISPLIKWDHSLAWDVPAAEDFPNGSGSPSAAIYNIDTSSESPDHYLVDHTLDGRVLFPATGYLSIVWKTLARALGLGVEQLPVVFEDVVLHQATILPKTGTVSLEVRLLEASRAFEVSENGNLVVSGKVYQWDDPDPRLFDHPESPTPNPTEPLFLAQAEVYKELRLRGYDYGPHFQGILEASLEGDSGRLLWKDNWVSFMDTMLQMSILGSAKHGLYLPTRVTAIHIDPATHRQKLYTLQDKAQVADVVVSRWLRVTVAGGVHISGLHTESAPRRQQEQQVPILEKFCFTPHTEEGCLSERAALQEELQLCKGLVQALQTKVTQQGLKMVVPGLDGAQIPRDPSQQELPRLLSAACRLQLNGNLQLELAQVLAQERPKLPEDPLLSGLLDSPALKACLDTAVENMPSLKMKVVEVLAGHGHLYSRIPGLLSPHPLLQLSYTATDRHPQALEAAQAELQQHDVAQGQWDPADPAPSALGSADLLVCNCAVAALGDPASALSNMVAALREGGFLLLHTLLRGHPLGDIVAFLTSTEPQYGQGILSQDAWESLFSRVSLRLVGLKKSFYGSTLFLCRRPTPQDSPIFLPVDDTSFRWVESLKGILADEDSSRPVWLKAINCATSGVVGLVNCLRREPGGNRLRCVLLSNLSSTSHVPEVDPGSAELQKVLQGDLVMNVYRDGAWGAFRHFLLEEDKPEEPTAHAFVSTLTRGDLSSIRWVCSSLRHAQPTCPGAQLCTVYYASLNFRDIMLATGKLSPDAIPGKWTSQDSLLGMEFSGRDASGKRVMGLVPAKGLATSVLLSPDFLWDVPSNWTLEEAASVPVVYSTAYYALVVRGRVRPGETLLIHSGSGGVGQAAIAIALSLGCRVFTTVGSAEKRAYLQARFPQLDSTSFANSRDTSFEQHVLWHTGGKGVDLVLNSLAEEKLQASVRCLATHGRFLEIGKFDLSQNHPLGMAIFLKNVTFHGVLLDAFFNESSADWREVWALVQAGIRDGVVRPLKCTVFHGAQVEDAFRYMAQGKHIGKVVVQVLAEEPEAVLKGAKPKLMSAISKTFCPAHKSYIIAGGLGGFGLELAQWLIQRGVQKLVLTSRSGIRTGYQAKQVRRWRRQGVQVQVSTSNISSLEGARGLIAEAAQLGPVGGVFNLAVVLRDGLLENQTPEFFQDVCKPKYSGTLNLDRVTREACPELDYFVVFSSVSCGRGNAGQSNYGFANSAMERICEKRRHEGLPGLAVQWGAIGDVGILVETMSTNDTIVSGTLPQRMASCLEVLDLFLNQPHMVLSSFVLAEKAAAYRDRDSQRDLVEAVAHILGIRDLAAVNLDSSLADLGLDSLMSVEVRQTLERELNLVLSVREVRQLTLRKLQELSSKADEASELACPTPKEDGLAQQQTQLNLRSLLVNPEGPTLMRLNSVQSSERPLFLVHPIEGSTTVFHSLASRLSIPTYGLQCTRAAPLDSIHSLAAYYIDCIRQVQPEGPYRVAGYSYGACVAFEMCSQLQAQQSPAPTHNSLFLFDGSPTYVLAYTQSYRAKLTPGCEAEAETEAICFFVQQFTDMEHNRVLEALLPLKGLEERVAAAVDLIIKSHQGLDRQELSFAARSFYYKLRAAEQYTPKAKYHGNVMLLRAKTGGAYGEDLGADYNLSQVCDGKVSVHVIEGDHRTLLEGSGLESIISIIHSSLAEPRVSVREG

Fatty acid synthase [4] = molecular target: T1, Fatty acid synthase; experiment: inhibition of human FAS-TE enzyme activity – biochemical, kinetic fluorescence intensity, dose response (AID 624326); assay type: functional;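 note: rate of fluorescence rise from hydrolysis of a fluorogenic O-methyl fluorescein ester substrate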
[5] = molecular target: T2, Sentrin-specific protease 7 (Homo sapiens, UniProt Q9BQF6); assay type: functional;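 note: Luminescence-based dose-response confirmation of ultra-high-throughput screening hits, measuring inhibition of SENP7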
T2 sequence (Q9BQF6 whole entry): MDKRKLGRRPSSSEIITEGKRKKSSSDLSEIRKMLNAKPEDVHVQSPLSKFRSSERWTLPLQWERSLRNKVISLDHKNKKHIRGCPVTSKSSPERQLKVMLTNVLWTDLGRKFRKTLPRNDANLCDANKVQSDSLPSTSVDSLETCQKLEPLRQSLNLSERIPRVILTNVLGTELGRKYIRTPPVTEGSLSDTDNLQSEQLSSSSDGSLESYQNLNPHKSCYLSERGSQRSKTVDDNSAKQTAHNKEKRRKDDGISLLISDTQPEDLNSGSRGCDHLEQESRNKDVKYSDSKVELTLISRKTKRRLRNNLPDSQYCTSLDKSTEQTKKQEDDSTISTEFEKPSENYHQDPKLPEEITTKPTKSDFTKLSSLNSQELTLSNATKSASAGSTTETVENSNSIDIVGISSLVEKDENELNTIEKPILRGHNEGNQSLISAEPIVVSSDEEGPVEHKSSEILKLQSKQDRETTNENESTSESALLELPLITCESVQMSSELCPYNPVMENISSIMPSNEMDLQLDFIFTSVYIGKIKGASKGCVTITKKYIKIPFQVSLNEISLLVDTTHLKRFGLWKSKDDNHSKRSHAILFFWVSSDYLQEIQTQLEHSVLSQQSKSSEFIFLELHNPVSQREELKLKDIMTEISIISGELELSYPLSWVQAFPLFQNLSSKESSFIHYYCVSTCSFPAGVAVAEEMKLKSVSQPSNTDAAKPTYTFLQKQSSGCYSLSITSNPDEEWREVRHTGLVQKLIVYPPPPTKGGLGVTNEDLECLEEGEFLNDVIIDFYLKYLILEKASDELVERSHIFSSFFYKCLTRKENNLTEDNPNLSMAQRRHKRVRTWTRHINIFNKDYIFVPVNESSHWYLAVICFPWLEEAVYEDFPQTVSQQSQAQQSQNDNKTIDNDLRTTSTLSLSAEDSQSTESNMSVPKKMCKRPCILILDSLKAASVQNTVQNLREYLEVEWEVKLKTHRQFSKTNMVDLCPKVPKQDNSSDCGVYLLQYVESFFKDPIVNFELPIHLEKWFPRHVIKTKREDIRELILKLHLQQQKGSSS

Caspase-3 = molecular target: T3, Caspase-3 (Homo sapiens, UniProt P42574); assay type: functional;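 note: Dose-response selectivity test against caspase-3 for candidate inhibitors of sentrin-specific proteases (SENPs)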
T3 sequence (P42574 whole entry): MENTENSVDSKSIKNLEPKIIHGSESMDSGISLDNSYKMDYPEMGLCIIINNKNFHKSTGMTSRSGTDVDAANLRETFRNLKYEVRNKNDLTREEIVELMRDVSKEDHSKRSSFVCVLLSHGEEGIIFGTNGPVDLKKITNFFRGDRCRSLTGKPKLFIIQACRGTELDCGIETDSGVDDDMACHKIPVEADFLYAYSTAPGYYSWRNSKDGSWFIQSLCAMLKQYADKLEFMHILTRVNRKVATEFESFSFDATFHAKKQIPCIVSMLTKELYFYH

[6] = molecular target: T4, Sentrin-specific protease 6 (Homo sapiens, UniProt Q9GZR1); assay type: functional;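 note: Luminescence-based dose-response confirmatory assay of SENP6 inhibition, following up an ultra-high-throughput screen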
T4 sequence (Q9GZR1 whole entry): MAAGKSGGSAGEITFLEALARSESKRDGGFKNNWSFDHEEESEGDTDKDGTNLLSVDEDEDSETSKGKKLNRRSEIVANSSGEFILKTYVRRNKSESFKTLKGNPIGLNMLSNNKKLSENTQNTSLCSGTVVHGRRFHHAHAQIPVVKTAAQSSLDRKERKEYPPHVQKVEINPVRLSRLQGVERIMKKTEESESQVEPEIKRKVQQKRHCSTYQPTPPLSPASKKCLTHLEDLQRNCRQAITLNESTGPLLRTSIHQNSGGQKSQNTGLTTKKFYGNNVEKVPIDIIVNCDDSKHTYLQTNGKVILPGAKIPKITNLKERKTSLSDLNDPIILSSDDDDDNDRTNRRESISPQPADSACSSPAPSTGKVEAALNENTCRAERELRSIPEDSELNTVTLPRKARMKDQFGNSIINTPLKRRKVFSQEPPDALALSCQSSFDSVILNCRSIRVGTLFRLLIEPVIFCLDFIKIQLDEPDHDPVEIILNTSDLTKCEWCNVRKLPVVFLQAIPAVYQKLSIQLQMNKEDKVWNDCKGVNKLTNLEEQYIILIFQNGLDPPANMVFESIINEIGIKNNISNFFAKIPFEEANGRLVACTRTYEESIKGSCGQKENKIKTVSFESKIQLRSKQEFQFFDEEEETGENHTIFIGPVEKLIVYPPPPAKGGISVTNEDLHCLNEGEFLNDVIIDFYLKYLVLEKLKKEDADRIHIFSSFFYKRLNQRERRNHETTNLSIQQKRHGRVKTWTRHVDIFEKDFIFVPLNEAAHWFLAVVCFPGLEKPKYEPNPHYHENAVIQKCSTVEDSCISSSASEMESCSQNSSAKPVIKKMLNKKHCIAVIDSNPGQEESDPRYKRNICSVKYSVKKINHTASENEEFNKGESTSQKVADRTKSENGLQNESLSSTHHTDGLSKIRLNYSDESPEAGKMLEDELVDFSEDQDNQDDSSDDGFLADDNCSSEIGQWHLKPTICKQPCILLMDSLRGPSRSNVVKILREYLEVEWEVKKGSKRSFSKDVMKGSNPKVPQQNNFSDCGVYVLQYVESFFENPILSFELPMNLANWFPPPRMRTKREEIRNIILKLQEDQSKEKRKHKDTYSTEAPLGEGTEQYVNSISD

[7] = molecular target: T5, Sentrin-specific protease 8 (Homo sapiens, UniProt Q96LD8); assay type: functional;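 note: luminescence read-out of SENP8 inhibition, dose-response confirmation following an ultra-high-throughput screen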
T5 sequence (Q96LD8 whole entry): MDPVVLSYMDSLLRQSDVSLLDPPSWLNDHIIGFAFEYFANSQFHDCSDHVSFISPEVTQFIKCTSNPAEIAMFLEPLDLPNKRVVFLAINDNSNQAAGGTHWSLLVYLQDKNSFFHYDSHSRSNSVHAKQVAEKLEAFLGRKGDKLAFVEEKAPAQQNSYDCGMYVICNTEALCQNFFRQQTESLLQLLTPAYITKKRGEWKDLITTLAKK

[8] = molecular target: T6, Trace amine-associated receptor 1 (Homo sapiens, UniProt Q96RJ0); experiment: Counterscreen for agonists of the human trace amine associated receptor 1 (hTAAR1): Fluorescence-based cell-based high throughput dose response assay to identify hTAAR1 agonist that also desensitize TAAR1 receptor response.; assay type: functional
T6 sequence (Q96RJ0 whole entry): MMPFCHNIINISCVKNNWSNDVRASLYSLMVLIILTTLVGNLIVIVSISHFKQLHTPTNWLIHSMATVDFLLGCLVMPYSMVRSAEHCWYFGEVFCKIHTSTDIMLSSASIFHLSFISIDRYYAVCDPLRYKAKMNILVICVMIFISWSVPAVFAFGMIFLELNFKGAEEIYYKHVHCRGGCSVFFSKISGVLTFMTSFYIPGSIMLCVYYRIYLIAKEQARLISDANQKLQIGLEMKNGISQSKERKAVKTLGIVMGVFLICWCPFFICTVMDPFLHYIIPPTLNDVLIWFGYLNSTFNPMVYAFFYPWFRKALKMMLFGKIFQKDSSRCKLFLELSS

cells [9] = assay type: functional, cell-based; remark: listed apart in the source
cells [10] = assay type: functional, cell-based; remark: listed apart in the source
[11] = molecular target: T6, Trace amine-associated receptor 1; experiment: Fluorescence-based cell-based high throughput dose response assay to identify agonists of the human trace amine associated receptor 1 (TAAR1).; assay type: functional
[12] = Trypanosoma cruzi growth suppression in host cells – NIH3T3 host cells, beta-gal luminescence, confirmation (AID 2044); assay type: functional, cell-based;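 note: intracellular parasites grown in NIH/3T3 mouse fibroblasts as host cells; luminescent beta-galactosidase reporter signal from transgenic T. cruzi replicating inside host cells; inhibitors lower the luminescence signal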
[13] = molecular target: Induced myeloid leukemia cell differentiation protein Mcl-1 (Homo sapiens, UniProt Q07820); assay type: functional
Sequence of Induced myeloid leukemia cell differentiation protein Mcl-1 (Q07820 whole entry): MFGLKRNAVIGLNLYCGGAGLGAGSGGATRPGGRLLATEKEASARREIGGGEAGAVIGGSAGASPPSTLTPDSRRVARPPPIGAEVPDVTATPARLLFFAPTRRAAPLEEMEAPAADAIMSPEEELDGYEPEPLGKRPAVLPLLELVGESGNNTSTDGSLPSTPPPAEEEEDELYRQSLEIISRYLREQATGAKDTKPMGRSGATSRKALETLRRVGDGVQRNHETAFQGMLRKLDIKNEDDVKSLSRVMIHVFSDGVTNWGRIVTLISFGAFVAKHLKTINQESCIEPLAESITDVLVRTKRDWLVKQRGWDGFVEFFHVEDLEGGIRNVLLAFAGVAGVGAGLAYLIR

[14] = NIH3T3 cell viability loss – ATP luminescence, mouse fibroblasts, counter-screen, dose response (AID 2010); assay type: functional, cell-based;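 note: cells exposed to compound for about 90 hours before reading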
[15] = HEK-293T cell viability reduction – luminescence, B-cell screen hits, cytotoxicity control for BCR NF-kB inhibitor project, dose response (AID 489021); assay type: functional, cell-based;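 note: HEK-293T cells carrying an NF-kB luciferase reporter; cells exposed to compound for about 14 hours before viability readout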

## COC(=O)c1ccc(COc2ccccc2/C=N/NS(=O)(=O)c2ccccc2)cc1
Cells [1]
  EC50: > 350 µM (not active)
Cells [2]
  EC50: > 350 µM (not active)

## O=c1oc(-c2ccco2)nc2sc3c(c12)CCCCC3
Fatty acid synthase [3]
  IC50: 5.34 µM (active)
Fatty acid synthase [4]
  IC50: 3.45 µM (active)

## CCOC(=O)c1c(C)[nH]c(C)c1S(=O)(=O)N1c2ccccc2CC1C (stereo unspecified)
Cells [1]
  EC50: > 350 µM (not active)
Cells [2]
  EC50: > 350 µM (not active)

## O=C(COC(=O)c1cc([N+](=O)[O-])ccc1NCCO)Nc1ccc2c(c1)OCO2
Fatty acid synthase [3]
  IC50: 2.69 µM (active)
Fatty acid synthase [4]
  IC50: 4.51 µM (active)

## COCC(C)n1c(C)cc(C(=O)COC(=O)c2n[nH]c3ccccc23)c1C (stereo unspecified)
[5]
  IC50: 7.13 µM (active)
Caspase-3
  IC50: 16.8 µM (active)
[6]
  IC50: 24.3 µM (active)
[7]
  IC50: 42.9 µM (active)

## Cc1nnc(SC(C(=O)Nc2ccc(Cl)c([N+](=O)[O-])c2)c2ccccc2)nc1O (stereo unspecified)
Fatty acid synthase [3]
  IC50: 17.3 µM (active)
Fatty acid synthase [4]
  IC50: 15.9 µM (active)

## O=C(NCN1CCc2ccccc2C1)c1cnccn1
[8]
  IC50: 8.03 µM (active)
Cells [9]
  EC50: > 29.9 µM (inactive)
Cells [10]
  IC50: > 29.9 µM (inactive)
[11]
  EC50: 2.14 µM (active)

## [O-][Cl+3]([O-])([O-])[O-].c1ccc(-c2ccc(-c3n(-c4ccccn4)c4ccccc4[n+]3-c3ccccn3)cc2)cc1
[12]
  EC50: 0.832 µM (active)
[13]
  IC50: > 54 µM (not active)
[14]
  EC50: > 60 µM (not active)

## O=C(CCN1C(=O)/C(=C\c2ccccc2Cl)SC1=S)Nc1cccnc1
Fatty acid synthase [3]
  IC50: 7.21 µM (active)
Fatty acid synthase [4]
  IC50: 6.84 µM (active)

## COc1ccccc1N1CN(CCc2ccccc2)CN=C1S
[8]
  IC50: 6.11 µM (active)
Cells [9]
  EC50: > 29.9 µM (inactive)
Cells [10]
  IC50: > 29.9 µM (inactive)
[11]
  EC50: 1.28 µM (active)

## O=S(=O)(Cc1cc(Cl)nc(-c2ccncc2)n1)c1ccccc1
[13]
  IC50: 6.12 µM (active)

## O=C(O)c1cccc(NC(=O)c2cccc(S(=O)(=O)Nc3cccc([N+](=O)[O-])c3)c2)c1
[5]
  IC50: 5.29 µM (active)
Caspase-3
  IC50: 19.2 µM (active)
[6]
  IC50: 9.02 µM (active)
[7]
  IC50: 11.9 µM (active)

## CNC(=O)c1cccn(Cc2ccc(C(F)(F)F)cc2)c1=O
[15]
  IC50: > 80 µM (inactive)

## Cc1nc(Cl)sc1C(=O)Nc1ccc2ccccc2c1
[5]
  IC50: 7.54 µM (active)
Caspase-3
  IC50: 22.7 µM (active)
[6]
  IC50: 23.9 µM (active)
[7]
  IC50: 29.8 µM (active)

## O=C(CSC(=S)N1CCCC1)NCCc1ccccc1
[8]
  IC50: 1.19 µM (active)
Cells [9]
  EC50: > 29.9 µM (inactive)
Cells [10]
  IC50: > 29.9 µM (inactive)
[11]
  EC50: 1.96 µM (active)

## O=C(CC1C(=O)NCCN1CCCc1ccccc1)NCCc1ccccc1Cl (stereo unspecified)
[8]
  IC50: 5.21 µM (active)
Cells [9]
  EC50: > 29.9 µM (inactive)
Cells [10]
  IC50: > 29.9 µM (inactive)
[11]
  EC50: 1.51 µM (active)

## O=C(c1cc(Br)ccc1Cl)N1CCC2(CC1)OCCO2
Cells [1]
  EC50: 67 µM (active)
Cells [2]
  EC50: > 350 µM (not active)

## O=C(Cn1cc([N+](=O)[O-])ccc1=O)N1CCc2ccccc2C1
Fatty acid synthase [3]
  IC50: 3.74 µM (active)
Fatty acid synthase [4]
  IC50: 5.97 µM (active)

## OCCNc1nc(Nc2ccccc2)nc(Nc2ccccc2)n1
[13]
  IC50: 24.3 µM (not active)

## CC(C)C(=O)N1CCN(c2nc3ccc(Cl)cc3s2)CC1
Cells [1]
  EC50: > 350 µM (not active)
Cells [2]
  EC50: > 350 µM (not active)

## CC(C)c1ccc(/N=C/c2c(O)oc3ccccc3c2=O)cc1
[5]
  IC50: 3.15 µM (active)
Caspase-3
  IC50: 16.9 µM (active)
[6]
  IC50: 30.5 µM (active)
[7]
  IC50: 90.6 µM (active)

## O=C(N[C@H](C(=O)N1CCC[C@H]1C(=O)NCCc1ccccc1Cl)c1ccccc1)c1ccco1
[8]
  IC50: > 29.9 µM (inactive)
Cells [9]
  EC50: > 29.9 µM (inactive)
Cells [10]
  IC50: > 29.9 µM (inactive)
[11]
  EC50: 10.3 µM (inactive)

## Cc1ccc(C(=O)CSc2nnc(COc3cc(C)cc(C)c3)o2)cc1
[15]
  IC50: > 80 µM (inactive)
